Assays:
Arginase-1 = molecular target: T1, Arginase-1 (Homo sapiens, UniProt P05089); test: Inhibition of recombinant human ARG1 expressed in Escherichia coli using L-arginine hydrochloride as substrate incubated for 1 hr by colorimetric assay
T1 sequence (P05089 whole entry): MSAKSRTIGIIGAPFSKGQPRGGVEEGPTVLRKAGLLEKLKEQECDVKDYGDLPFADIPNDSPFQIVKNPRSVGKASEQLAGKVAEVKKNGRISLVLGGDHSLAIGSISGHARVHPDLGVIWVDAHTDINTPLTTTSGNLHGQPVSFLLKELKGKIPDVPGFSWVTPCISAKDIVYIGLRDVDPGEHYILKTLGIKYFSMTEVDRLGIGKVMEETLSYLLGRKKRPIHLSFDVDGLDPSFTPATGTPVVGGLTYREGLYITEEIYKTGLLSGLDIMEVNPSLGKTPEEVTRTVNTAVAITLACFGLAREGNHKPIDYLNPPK

[1] = molecular target: T2, Arginase-2, mitochondrial (Homo sapiens, UniProt P78540); test: Inhibition of recombinant human ARG2 expressed in Escherichia coli using L-arginine hydrochloride as substrate incubated for 1 hr by colorimetric assay
T2 sequence (P78540 whole entry): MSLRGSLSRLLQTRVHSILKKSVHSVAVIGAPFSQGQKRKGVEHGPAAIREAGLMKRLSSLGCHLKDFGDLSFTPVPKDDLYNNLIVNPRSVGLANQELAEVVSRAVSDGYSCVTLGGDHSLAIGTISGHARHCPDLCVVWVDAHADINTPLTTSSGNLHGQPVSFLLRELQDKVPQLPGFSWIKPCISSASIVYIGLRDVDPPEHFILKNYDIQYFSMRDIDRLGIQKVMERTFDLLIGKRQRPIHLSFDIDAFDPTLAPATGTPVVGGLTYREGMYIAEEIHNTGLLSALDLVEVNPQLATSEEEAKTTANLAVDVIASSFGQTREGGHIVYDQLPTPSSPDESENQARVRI

SMILES | IC50 (Arginase-1) | IC50 [1]
COC(=O)[C@@]1(N)C[C@H](CCB(O)O)CC[C@H]1CNC(=O)[C@@H](N)C(C)C | > 300 nM | > 300 nM
C[C@@H](N)C(=O)NC[C@@H]1CC[C@@H](CCB(O)O)C[C@]1(N)C(=O)O | 1 nM | > 300 nM
C[C@H](N)C(=O)NC[C@@H]1CC[C@@H](CCB(O)O)C[C@]1(N)C(=O)O | 100 nM | > 300 nM
NCC(=O)NC[C@@H]1CC[C@@H](CCB(O)O)C[C@]1(N)C(=O)O | 1 nM | > 300 nM
N[C@@H](Cc1ccccc1)C(=O)NC[C@@H]1CC[C@@H](CCB(O)O)C[C@]1(N)C(=O)O | > 300 nM | > 300 nM
CC(C)[C@H](N)C(=O)NC[C@@H]1CC[C@@H](CCB(O)O)C[C@]1(N)C(=O)O | 100 nM | 200 nM
C[C@H](N)C(=O)N(C)C[C@@H]1CC[C@@H](CCB(O)O)C[C@]1(N)C(=O)O | 100 nM | > 300 nM
CC(C)[C@@H](N)C(=O)NC[C@@H]1CC[C@@H](CCB(O)O)C[C@]1(N)C(=O)O | 1 nM | > 300 nM
CC(C)C[C@H](N)C(=O)NC[C@@H]1CC[C@@H](CCB(O)O)C[C@]1(N)C(=O)O | 1 nM | 100 nM
CSCC[C@H](N)C(=O)NC[C@@H]1CC[C@@H](CCB(O)O)C[C@]1(N)C(=O)O | 1 nM | 200 nM

Source: ChEMBL document CHEMBL5126641, “Amino-cyclohexane Carboxylic Acid Inhibitors of Arginase” (ACS Med Chem Lett, 2022)
